The subject of assay [1] is bcl-2 G-quadruplex DNA (DNA, G4) CGGGCGCGGGAGGAAGGGGGCGGGAGC
Put plainly: CD melting at 280 nm. As to conditions: 100 mM KCl; 10 mM Tris-HCl, pH 7.4; 10 μM complex, 100 μM DNA.

Assay [2] shares this test system. The assay can be described thus: UV-vis absorption titration. Conditions: 100 mM KCl; 10 mM Tris-HCl, pH 7.4; 20 μM complex; intrinsic binding constant.

As to `Clc1ccc(-c2nc3c4cccnc4c4ncccc4c3[nH]2)cc1.[Cl-].[Ru+2].c1ccccc1`, the ΔTm in assay [1] was 4.2 °C. Moreover, the K in assay [2] is ~ 2.94 × 10^6 M^-1.

Usually ΔTm stands for the shift of the melting midpoint relative to a reference.

Values taken from PMC5503023 (2016).
